IC50 data for one compound are collected here from BindingDB's records for doi:10.1021/acsmedchemlett.6b00381 (Mossakowski Medical Research Centre Polish Academy of …, 2017).

The test addresses Substance-P receptor (Rattus norvegicus, UniProt P14600). Nature of the test: ChEBML_1632341. On the procedure:
Displacement of [Leu-3,4,5-3H(N)]-Substance P from NK1 receptor in rat brain homogenate measured after 60 mins by microbeta scintillation counting analysis

Chain of Substance-P receptor (P14600 whole entry): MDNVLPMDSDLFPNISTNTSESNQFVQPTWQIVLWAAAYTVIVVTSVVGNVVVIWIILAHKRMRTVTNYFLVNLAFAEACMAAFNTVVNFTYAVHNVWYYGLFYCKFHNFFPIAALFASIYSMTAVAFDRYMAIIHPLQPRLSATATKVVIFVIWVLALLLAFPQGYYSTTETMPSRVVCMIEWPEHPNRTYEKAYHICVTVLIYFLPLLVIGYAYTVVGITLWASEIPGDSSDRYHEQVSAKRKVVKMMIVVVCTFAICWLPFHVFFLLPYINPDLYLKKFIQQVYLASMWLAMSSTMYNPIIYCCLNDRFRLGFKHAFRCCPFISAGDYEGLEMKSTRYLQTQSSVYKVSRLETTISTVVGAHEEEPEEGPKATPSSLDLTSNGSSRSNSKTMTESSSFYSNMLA

For orientation: IC50 means the midpoint of a concentration-inhibition curve. As to `C[C@@H](NC(=O)[C@@H](N)Cc1ccc(O)cc1)C(=O)NCC(=O)N[C@@H](Cc1ccccc1)C(=O)NN=Cc1cc(C(F)(F)F)cc(C(F)(F)F)c1`, the IC50 came out at 4.2 nM.
